Experimental data: patent US9588123B2, “Compositions and methods for in vitro diagnostic tests including zwitterionic solubilization reagent” (SurModics IVD, Inc., priority 2014, dated 2017)
Values after ≈ are worked out from the molar mass of the structure shown. Where two headings read alike, the source gives them in different places. One block for each compound: values may come before it.

Tests used:
HRP = assay: Kinetic rate of HRP oxidation of TMB substrate on anti-peroxidase coated microwell plate, A (650 nm); type: biochemical, horseradish; settings: 0-1 OD at 650 nm, 0-15 minutes
Description: A TMB solution was prepared having the following concentration of reagents: 3 mM TMB (Sigma, Cat #T-2885), 0.5% dimethylsulfoxide (DMSO; […] Various chemicals, used at 0.5M in the TMB solution, were compared against the betaine reagent in non-encapsulation solubilization methods. Glycine (Sigma, Cat #G8898), sarcosine (Sigma, Cat #131776), choline chloride (Sigma, Cat #C1909), L-carnitine (Sigma, Cat #C0158), 3-(1-pyridinio)-1-propanesulfonate (Sigma, Cat #82804), or the betaine N,N,N-trimethylglycine (Sigma, Cat #B2629) were all added to separate scintillation vials of TMB solution. A Nunc Maxisorb 96 microwell plate (Cat #439454) was coated with 100 μL of an 850 ng/mL solution of Rabbit Anti-Peroxidase (Accurate Chemical and Scientific Corporation, Cat #ACZ001021). The plate was then coated with 150 μL of StabilCoat (SurModics, Cat #SC01) for one hour. This was then aspirated and the plate was allowed to dry overnight in a desiccation chamber. Plates were then incubated with 100 μL of 3.125 ng/mL solution of HRP in Stabilzyme HRP Conjugate stabilizer (SurModics, SZ02) for one hour, washed three times, and 100 uL of TMB substrate was added to each well. […] To each TMB solution was added 1 mM hydroxy propyl beta-cyclodextrin (Wacker, 60082620), 3 mm hydroxy propyl beta-cyclodextrin (Wacker, 60082620), or 0.5M of the betaine N,N,N-trimethylglycine (Sigma, Cat #B2629). A Nunc Maxisorb 96 microwell plate (Cat #439454) was coated with 100 μL of an 850 ng/mL solution of Rabbit Anti-Peroxidase (Accurate Chemical and Scientific Corporation, Cat #ACZ001021). The plate was then coated with 150 μL of StabilCoat (SurModics, Cat #SC01) for one hour. This was then aspirated and the plate was allowed to dry overnight in a desiccation chamber. Plates were then incubated with 100 μL of 3.125 ng/mL solution of HRP in Stabilzyme HRP Conjugate stabilizer (SurModics, SZ02) for one hour, washed three times, and 100 uL of TMB substrate was added to each well.

[1] = Dye content of TMB solution, A (285 nm): amount of unrestricted benzidine rings in solution; type: physicochemical
Description: A TMB solution was prepared having the following concentration of reagents: 3 mM TMB (Sigma, Cat #T-2885), 0.5% dimethylsulfoxide (DMSO; […] Various chemicals, used at 0.5M in the TMB solution, were compared against the betaine reagent in non-encapsulation solubilization methods. Glycine (Sigma, Cat #G8898), sarcosine (Sigma, Cat #131776), choline chloride (Sigma, Cat #C1909), L-carnitine (Sigma, Cat #C0158), 3-(1-pyridinio)-1-propanesulfonate (Sigma, Cat #82804), or the betaine N,N,N-trimethylglycine (Sigma, Cat #B2629) were all added to separate scintillation vials of TMB solution. Each TMB substrate and TMBW (available from SurModics, Inc) in an amount of 20 μL were added to individual aliquots of 980 μL of distilled water. […] Each TMB solution in an amount of 20 μL was added to individual aliquots of 980 μL of distilled water. […] To each TMB solution was added 1 mM hydroxy propyl beta-cyclodextrin (Wacker, 60082620), 3 mm hydroxy propyl beta-cyclodextrin (Wacker, 60082620), or 0.5M of the betaine N,N,N-trimethylglycine (Sigma, Cat #B2629). Each TMB substrate and TMBW (available from SurModics, Inc) in an amount of 20 μL of were added to individual aliquots of 980 μL of distilled water.

[2] = cited from earlier work
[3] = Example 1: additive at 0.5M in TMB solution (3 mM TMB, 1.25 mM hydroxypropyl beta-cyclodextrin, pH 3.5), TMBW as supplied
[4] = Example 1: additive at 0.5M in TMB solution (3 mM TMB, 0.5% DMSO, 1.25 mM hydroxypropyl beta-cyclodextrin, 0.01% H2O2, pH 3.5), TMBW as supplied, 20 μL in 980 μL water

Compound: Cc1cc(-c2ccc(N)c(C)c2)ccc1N [2-tolidine]
solubility in water [2]: 1.3 g/L (≈ 6.12 mM)

Compound: C[N+](C)(C)CCO.[Cl-] [Choline Chloride, choline chloride]
Kinetics (mAu/min) (HRP; [3]): 2.855 mAu/min
Dye (A285) [1, 4]: 1.074

Compound: hydroxy propyl beta-cyclodextrin [Beta Cyclodextrin]
Kinetics (mAu/min) (HRP; Example 3: 1 mM additive in 3 mM TMB solution, pH 3.5): 39.697 mAu/min
Kinetics (mAu/min) (HRP; Example 3: 3 mM additive in 3 mM TMB solution, pH 3.5): 49.775 mAu/min
Dye (A285) ([1]; Example 3: 1 mM additive in 3 mM TMB, 0.5% DMSO, 0.01% H2O2, pH 3.5): 0.339
Dye (A285) ([1]; Example 3: 3 mM additive in 3 mM TMB, 0.5% DMSO, 0.01% H2O2, pH 3.5): 0.78

Compound: O=S(=O)([O-])CCC[n+]1ccccc1 [3-(1-Pyridinio)-1-propanesulfonate, 3-(1-pyridinio)-1-propanesulfonate]
Kinetics (mAu/min) (HRP; [3]): 49.732 mAu/min
Dye (A285) [1, 4]: 1.175

Compound: Nc1ccc(-c2ccc(N)cc2)cc1 [Benzidine, biphenyl-4,4′-diamine]
solubility in water ([2]; at 100° C., in the absence of the N,N,N-trimethylglycine solubilization reagent): 0.94 g/100 mL

More lines, main results first:

Kinetics (mAu/min) (HRP; [3]): 18.432 mAu/min
Dye (A285) [1, 4]: 0.254
Compound: C[N+](C)(C)C[C@H](O)CC(=O)[O-] (racemic) [DL-Carnitine, L-carnitine]

Kinetics (mAu/min) (HRP; [3]): 71.917 mAu/min
Kinetics (mAu/min) (HRP; Example 3: 0.5M additive in 3 mM TMB solution, pH 3.5): 71.739 mAu/min
Dye (A285) [1, 4]: 0.974
Dye (A285) ([1]; Example 2: 0.25M N,N,N-trimethylglycine, 3 mM TMB, 0.5% DMSO, pH 3.5): 0.35
Dye (A285) ([1]; Example 2: 0.5M N,N,N-trimethylglycine, 3 mM TMB, 0.5% DMSO, pH 3.5): 0.535
Dye (A285) ([1]; Example 2: 1M N,N,N-trimethylglycine, 3 mM TMB, 0.5% DMSO, pH 3.5): 0.85
Dye (A285) ([1]; Example 3: 0.5M additive in 3 mM TMB, 0.5% DMSO, 0.01% H2O2, pH 3.5): 1.061
Compound: C[N+](C)(C)CC(=O)O [Betaine (N,N,N-trimethylglycine), N,N,N-trimethylglycine]
solubility in water ([2]; at 25° C.): up to 64 g/100 mL
solubility in water (molar) ([2]; at 25° C.): ~5500 mM

Kinetics (mAu/min) (HRP; [3]): 45.014 mAu/min
Dye (A285) [1, 4]: 0.45
Compound: CNCC(=O)O [Sarcosine, sarcosine]

Kinetics (mAu/min) (HRP; [3]): 41.16 mAu/min
Dye (A285) [1, 4]: 0.358
Compound: NCC(=O)O [Glycine]
